Literature values as cited in patent publication US20250282901A1, “POLYMERIC CHELATORS CROSS-LINKED WITH HIGH MOLECULAR WEIGHT CROSS-LINKERS” (THE UNIVERSITY OF KANSAS, priority 2021, published 2025).

For O=C(N[C@H]1COC(=O)[C@@H](NC(=O)c2cccc(O)c2O)COC(=O)[C@@H](NC(=O)c2cccc(O)c2O)COC1=O)c1cccc(O)c1O [Enterobactin], the “relative iron binding constant” value (Fe(III)) is given as 35.5 and the “Log K” value (natural iron chelator) is given as 52.
